Common to all, as to assay type: cell-based
One series concerns the target T1, AR-TIF2 PPI (Homo sapiens, UniProt P10275).
T1 construct: expressed in transfected cells; host or cells: U-2 OS osteosarcoma cells, co-infected with recombinant adenoviruses
T1 sequence (P10275 663-920 limits assumed): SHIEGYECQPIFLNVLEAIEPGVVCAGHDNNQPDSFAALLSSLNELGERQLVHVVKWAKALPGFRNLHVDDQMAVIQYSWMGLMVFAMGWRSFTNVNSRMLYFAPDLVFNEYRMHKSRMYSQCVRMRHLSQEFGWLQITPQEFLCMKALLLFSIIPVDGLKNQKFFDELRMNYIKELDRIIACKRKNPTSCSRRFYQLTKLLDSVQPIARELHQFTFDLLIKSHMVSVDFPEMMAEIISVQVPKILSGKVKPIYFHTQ
In words: AR-TIF2 PPI biosensor (PPIB) HCS assay, inhibition of DHT-induced AR-TIF2 PPI formation. The following applies: for IC50: U-2 OS cells, compounds 3 h prior to 25 nM DHT for 90 min. The method, then: Daughter plates containing 2 μL of the serially diluted compounds in DMSO were prepared and replicated from 384-well serial dilution master plates using a Janus MDT platform outfitted with a 384-well transfer head. Aluminum adhesive plate seals were applied, and plates were stored at −20 °C. For bioassay testing, daughter plates were withdrawn from −20 °C storage, thawed to ambient temperature, and centrifuged for 1 min at 100 × g, and plate seals were removed before 38 μL of serum-free media (SFM) was transferred into wells using a Matrix pipettor (ThermoFisher, Waltham, MA), to generate an intermediate stock concentration of validation compounds ranging from 0.977 to 500 μM (5.0% DMSO). Diluted compounds were mixed by repeated aspiration and dispensation using a 384-well P30 dispensing head on the Janus MDT platform and then, 5 μL of diluted compounds was transferred to assay plate wells to provide a final concentration range from 0.0977 to 50 μM (0.5% DMSO).
The AR-TIF2 PPIB HCS assay was performed in U-2 OS osteosarcoma cells as described previously. Briefly, U-2 OS cells were coinfected with recombinant adenovirus biosensor expression constructs and seeded at 2500 cells per well in 384-well collagen-coated microplates (Greiner BioOne #781956) and plates were incubated overnight at 37°C in 5% CO2 and 95% humidity. […] After the appropriate time, assay plates were fixed by transfer of 50 μL of pre-warmed (37°C) 7.4% formaldehyde and 2 μg/mL Hoechst 33342 in PBS and incubation at room temperature for 30 min. Liquid was aspirated, plates were washed twice with 85 μL PBS, leaving the final wash in the plate. Plates were sealed with adhesive aluminum plate seals, and fluorescent images of three fields of view were acquired in the DAPI (Hoechst stained nuclei), FITC (TIF2-GFP) and Texas Red (AR-RFP) channels on an ImageXpress Micro (IXM) automated HCS platform (Molecular Devices LLC, Sunnyvale, CA) using a 10X Plan Fluor 0.3 NA objective. Images were analyzed using the Translocation Enhanced (TE) image analysis module of the MetaXpress software as described previously.
(§1) In 384-well assays, DMSO minimum (n = 32) and maximum (n = 32) plate control wells were utilized to calculate signal-to-background ratios (S:B) and Z’-factor coefficient assay performance quality control statistics, and to normalize the signals of compound treated wells and to represent 0% and 100% respectively. For the 96-well AR-LBD H^3-DHT radioligand binding assay, eight minimum and maximum plate control wells were utilized to normalize the data. For the PC cell line growth inhibition assays we used the DMSO control data from the T0 and T72 assay plates to assess the dynamic range of the T0 to T72 cell growth, and to calculate S:B ratios and Z’-factor coefficient statistics for the assay signal window (T0 to T72). To normalize the 72 h compound exposure PC growth inhibition data, the signals from the compound treated wells were processed and expressed as% of the T72 DMSO plate controls. IC50 and GI50 values for each of the bioassays were calculated using Graph-Pad Prism 9 software to plot and fit data to curves using the Sigmoidal dose response variable slope equation Y = Bottom + [Top-Bottom]/ [1 + 10^^(LogEC50-X)*HillSlope].

A further series has as its system DU-145 cells. Put plainly: Prostate cancer cell line growth inhibition assay, DU-145. The following applies: read-out: DU145 GI50 (AR−). The procedure: (§2) The PC-3, DU-145, LNCaP, C4–2, and 22Rv1 PC cell line growth inhibition assays have been described previously. On day 1, each PC cell line was harvested, counted, and seeded into two 384-well assay plates, a time zero (T0) and a time 72 h (T72) plate. PC cell lines were all seeded at 1000 cells per well in 45 μL of tissue culture media in uncoated white clear bottom 384-well assay plates (VWR, # 82050–076) using a Matrix electronic multichannel pipette (Thermo Fisher Scientific, Waltham, MA) and cultured overnight at 37 °C, 5% CO2, and 95% humidity. On day 2, 25 μL of the Cell Titer Glo (CTG) (Promega Corporation, Madison, WI) detection reagent was dispensed into the wells of the T0 assay plate using a Matrix electronic multichannel pipette, and the RLUs were captured on the SpectraMax M5e (Molecular Devices LLC, Sunnyvale, CA) microtiter plate reader. Also on day 2, 5 μL of compounds were transferred into the test wells of the T72 384-well assay plates which were returned to the incubator for 72 h. Control wells received DMSO alone. On day 5, 25 μL of the CTG detection reagent was dispensed into the wells of the T72 assay plate using a Matrix electronic multichannel pipette, and the RLU’s were captured on the SpectraMax M5e microtiter plate reader platform.
as §1

A short description of series [1]: PC-3-ARV7-GFP viability counter screen. The settings on record: human, PC3-AR-V7-GFP cells; cytotoxicity counter screen; read-out: PC-3-ARV7-GFP viability CS GI50. (In general: Counterscreens check selectivity or assay interference.)
For series [2], the system named is PC cell lines positive (LNCaP, C4–2, & 22Rv1 cells) or negative (PC-3 & DU-145) for AR. Put plainly: Prostate cancer cell line growth inhibition assays, panel statements. The following applies: 72 h. The method, then: as §2, §1
[3] abbreviates: LNCaP, C4–2, 22Rv1, read-out: GI50s in AR positive PC cell lines.

Values joined by “and” are separate entries in the source; they are usually repeats but may differ in a detail not shown here. Equal entries are not always repeated. Where two headings read alike, the source gives them in different places.

The IC50 is the concentration needed to halve the response being measured. Low values mean greater potency in that assay, high ones weaker potency in that assay.

The compound `Cc1ccccc1-c1cc(O)c2c(c1)CN(c1nc(C(N)=O)cs1)CCO2` [S1–1] displayed an IC50 against AR-TIF2 PPI of 5.64 µM. Besides, the GI50 is > 100 µM with DU-145 cells (Homo sapiens, DU-145, 72 h); > 100 µM in series [1]; 29 to 56 µM in series [2] (setting [3]).

Compound `Cc1ccccc1-c1cc(O)c2c(c1)CN(c1nccs1)CCO2` [S1–3] gave an IC50 at AR-TIF2 PPI of 30.5 µM. Moreover, the GI50 with DU-145 cells (72 h) is > 100 µM. Also, the “Cytotoxicity in AR positive relative to AR negative PC cell lines” value in series [2] is given as “exhibited differential cytotoxicity in AR positive PC cell lines”.

As to `Cc1nsc(NC(=O)N2CCC(Sc3ccccc3C)CC2)n1` [S2–6], the IC50 against AR-TIF2 PPI amounted to 1.06 µM. Further, the GI50 in the series with DU-145 cells (Homo sapiens, DU-145, 72 h) is > 100 µM; in series [1] it was > 100 µM; in series [2] (Homo sapiens, PC-3, DU-145, read-out: GI50s in AR negative PC cell lines), > 100 µM; in series [2] (setting [3]), 14 to 19 µM. Also, the “Cytotoxicity in AR positive relative to AR negative PC cell lines” value in series [2] is “exhibited differential cytotoxicity in AR positive PC cell lines”.

`Cc1c(-c2ccccc2F)[nH]c2ccc(CNC(=O)CCc3cn[nH]c3)cc12` [S3–11]: on AR-TIF2 PPI, the IC50 was 3.25 µM and 3.2 µM. For the same compound, the GI50 in the series on DU-145 cells (Homo sapiens, DU-145, 72 h) is 18 µM; in series [1] it was > 100 µM. For the same compound, the “Cytotoxicity in AR positive relative to AR negative PC cell lines” value in series [2] is “exhibited differential cytotoxicity in AR positive PC cell lines relative to AR negative cell lines”.

On AR-TIF2 PPI, `Cc1c(-c2ccccc2F)[nH]c2ccc(CNC(=O)CCc3cnccn3)cc12` [S3–12] yielded an IC50 of 4.24 µM. Moreover, the GI50 is 6.82 µM in the series on DU-145 cells (Homo sapiens, DU-145, 72 h) and > 100 µM in series [1]. Besides, the “Cytotoxicity in AR positive relative to AR negative PC cell lines” value in series [2] is reported as “roughly equipotent against all 5 PC cell lines”.

As for `CC(=O)NCCC(=O)NCc1ccc2[nH]c(-c3ccccc3F)c(C)c2c1` [S3–13], the IC50 on AR-TIF2 PPI is 7.16 µM. The GI50 in the series with DU-145 cells (Homo sapiens, DU-145, 72 h) was > 100 µM; in series [1] it was > 100 µM. Further, the “Cytotoxicity in AR positive relative to AR negative PC cell lines” value in series [2] is given as “roughly equipotent against all 5 PC cell lines”.

In turn, `Cc1c(-c2ccccc2F)[nH]c2ccc(CNC(=O)c3ccc(CO)o3)cc12` [S3–14] showed an IC50 on AR-TIF2 PPI of 2.13 µM. In addition, the GI50 in the series with DU-145 cells (Homo sapiens, DU-145, 72 h) was > 100 µM; in series [1] it was > 100 µM. Also, in series [2], the “Cytotoxicity in AR positive relative to AR negative PC cell lines” value is reported as “exhibited differential cytotoxicity in AR positive PC cell lines relative to AR negative cell lines”.

As for `Cc1c(-c2ccc(F)cc2)[nH]c2ccc(CNC(=O)c3ccc(CO)o3)cc12` [S3–15], on AR-TIF2 PPI (S1 analogs vs S1–1, S3–15 vs S3–14), the “Reduction in relative potency versus parent hit in AR-TIF2 PPIB assay formats” value was ~ 2 fold. This compound registered a 50% inhibitory concentration (IC50) on AR-TIF2 PPI of 5.11 µM. In addition, the GI50 was 24.3 µM in the series on DU-145 cells (Homo sapiens, DU-145, 72 h) and > 100 µM in series [1]. Further, the “Cytotoxicity in AR positive relative to AR negative PC cell lines” value in series [2] was “roughly equipotent against all 5 PC cell lines”.

These data come from publication PMC12366525, “Characterization of allosteric modulators that disrupt androgen receptor co-activator protein-protein interactions to alter transactivation–Drug leads for metastatic castration resistant prostate cancer” (SLAS discovery : advancing life sciences R & D, 2023).
